The values below come from patent publication US20070105810A1, “THERAPEUTICS” (priority 2003, published 2007).

Values joined by “and” are separate entries in the source; they are usually repeats but may differ in a detail not shown here. Identical values can stand only once. “Also recorded” adds a separate entry of the source.

Data set [1] deals with transfer experimental autoimmune encephalomyelitis (EAE) in Lewis rats. Kind of data set: Transfer experimental autoimmune encephalomyelitis (EAE). It is filed as in vivo, Lewis rat. An excerpt: Transfer of MBP-specific CD4-positive T cells was used at day 0 to induce experimental autoimmune encephalomyelitis (EAE) in Lewis rats. Animals injected with PBS (vehicle) or nicotinic acid (control compound with structural similarities to BZ52) developed severe paralysis of tail and rear legs due to the inflammation. Clinical symptoms started day 3.5 and reached their maxima day 4 to 6 (or 6.5). Between day 3.5 and day 6, no difference between PBS and nicotinic acid was observed, whereas a beneficial effect of BZ52 was visible (FIG. 14).
Animals (6 per group, body weight approx. 150 g) were injected i.p. twice per day with either PBS (vehicle control), nicotinic acid (50 μmol/100 g body weight), or BZ 52 (50 μmol/100 g body weight). Clinical scores indicate the degree of paralysis of tail and legs. Data are presented as mean±SD from one representative experiment (n=6).
Animals (6 per group, body weight approx. 150 g) were injected i.p. twice per day with either PBS (vehicle control), nicotinic acid (50 μmol/100 g body weight), or BZ 52 (50 μmol/100 g body weight). […] Data are presented as mean±SD from one representative experiment (n=6).
5×10^6 activated MBP specific-GFP Tcells were transferred i.v. into recipient Lewis rats. Clinical EAE was graded in five scores: 0.5, loss of tail tonus; 1, tail paralysis; 2, gait disturbance; 3, hind limb paralysis; 4, tetraparesis; 5, death.
Animals' weight was measured twice a day.
In order to analyze the effect of BZ194 on encephalitogenic T cells during the effector phase of EAE we used retrovirally transduced MBP-specific T cells expressing the marker gene green fluorescent protein (TMBP-GFP cells).
Animals were treated for 5 d intraperitoneally with 500 μmol BZ194 or vehicle (DMSO).

The subject of data set [2] is T cell receptor/CD3 complex mediated Ca2+ signalling. Kind of data set: T cell receptor/CD3 complex mediated Ca2+ signalling in human T cells. It is filed as cell-based. The method, then: Intact Jurkat T-lymphocytes were loaded with fura2/AM. Ratiometric determination of [Ca^2+]i was carried out in cell suspension in a Hitachi F2000 fluorometer at room temperature at excitation wavelengths of 340 and 380 nm (alternating) and an emission wavelength of 495 nm. Each experiment was calibrated by addition of Triton X100 (10% v/v final concentration) to obtain the maximal ratio and subsequent addition of 4 mM EGTA/40 mM Tris-base to obtain the minimal ratio.
[Ca^2+]i was measured by using the fluorescent indicator Fura2/AM. In brief, 10^7 cells were loaded with Fura2/AM, and fluorescence was determined in batches of 1.5×10^6 cells with an Hitachi F-2000 fluorimeter at excitation and emission wavelengths of 340 and 380 nm (exc.) and 505 nm (em.), respectively. Measurements were carried out at 20° C. At the end of each single measurement maximal and minimal ratios were determined by addition of Triton X-100 and EGTA/Tris.

A further data set deals with OVA-specific T cells. Kind of data set: Proliferation of cultured OVA-specific T cells. The data set is classed as cell-based.
The subject of a further data set is rat MBP-specific T cells. As to the kind of experiment: Cytokine (IL2 mRNA) expression of in vitro-cultured MBP-specific T cells, quantitative PCR. It is filed as cell-based. Particulars: IL2 quantitative PCR after 48 h. The method, then: Cells were stimulated in presence of MBP-pulsed irradiated APCs and increasing concentrations of BZ194. After 48 h cells were collected for cytofluorometric cell count A and RNA extraction was performed for quantitative PCR analysis (IL2) B. Effect of BZ194 on pre-activated T cell blasts C. Amplification of MBP-specific T cells which had been incubated before in the presence of DMSO or 0.5 mM or 1 mM BZ194 D.
(§1) mRNA was extracted using standard protocols (Sigma-Aldrich) and reversed to cDNA (Invitrogen). Taqman analysis was performed as reported (Flügel et al. 2001, Immunity) using ABI Prim 7700 Sequence Detector “Taqman” (PE Applied Biosystems). The expression of a housekeeping gene (b-actin) was set into relation to the specific mRNA. Data were obtained by independent duplicate measurements.
BZ194 strongly influenced the function of rat MBP-specific T cells in vitro and in vivo. Proliferation and cytokine expression of the T cells was tested in vitro after incubation with irradiated MBP-pulsed thymic antigen presenting cells (in rats the commonly used APC type, ref. 5). […] Additionally, the expression of cytokine production by the T cells was reduced (FIG. 18B). Importantly, these effects were not due to toxicity of BZ194.

A short description of data set [3]: Tolerability of intraperitoneal injection in Lewis rats. The data set is classed as in vivo. From the text: Limited solubility of BZ194 excluded intravenous application due to embolic complications.
For a further data set, the system named is TMBP-GFP cells. Kind of data set: Intravital videomicroscopy: motility of TMBP-GFP cells in the spleen. It is filed as in vivo, rat. Conditions: 3 d after T cell transfer, 6.5 μm/min in DMSO-treated controls, preliminary. On the procedure: Intravital videomicroscopy of the spleen of vehicle (DMSO, left) A or BZ194 B-treated animals 3 d after T cell transfer. The ratio between stationary and motile MBP-specific GFP T cells (upper graphs) and cell trajectories (lower graphs, 10 min analysis) are shown. Stationary cells are defined as cells moving less than 10 μm in 10 minutes.
Animals were anesthetized by intraperitoneal injection of xylazine/ketamine (10 mg/kg and 50 mg/kg, respectively), with reapplied doses (1 mg/kg xylazine/5 mg/kg ketamine) administered as required. Adequate oxygenation was ensured by an oxygen (95% O2/5% CO2) mask fixed on the animal's snout. Body temperature was controlled by a heated pad. For spleen imaging temperature and moistness controlled chambers were constructed for inverted microscope settings. Surgically exposed spleens with intact vasculature were carefully placed into the chambers superfused with carbogenated HBSS (95% O25% CO2).
Time-lapse recordings were performed using an inverted microscope (Zeiss, Axiovert 200M) equipped with a 20×, 0.4 NA objective (Zeiss). Images were acquired using a Coolsnap-HQ camera (Photometrics, Roper Scientific, Tuscon, Ariz.) in 30 s time intervals and processed by MetaMorph (Visitron Systems, Puchheim, Germany). Image J software (freeware, provided by Wayne Rasband, NIH) was used to evaluate cell trajectories and velocity.

In data set [4] the test system is cytokine production (IL-2, IFNγ, TNFα, IL-2 receptor mRNA). As to the kind of experiment: Quantitative PCR of cytokine mRNA in spinal cord and spleen of EAE animals. The data set is classed as in vivo, rat. Conditions: spinal cord tissue 4 days after T cell transfer; BZ194 5 d, 500 μmol; relative to β actin and CD3. The method, then:
Quantitative PCR of spinal cords and spleens 4 days after T cell transfer of animals treated with vehicle (DMSO) of BZ 194 (5 d, 500 μmol). IFNg A,B and IL-2 C,D mRNAs were measured in relation to housekeeping gene β actin A,C or T cell marker CD3 B,D.
as §1

Setting [5] is: 500 μmol BZ194 i.p. for 5 d, mean±SD, Experiments I-III.

Take `CCCCN(CCCC)C(=O)C[n+]1cccc(C(=O)O)c1` [BZ52, 3-Carboxy-1-dibutylcarbamoylmethyl-pyridinium]: in data set [1] (50 μmol/100 g body weight i.p. twice per day), the “decrease in body weight” value is “less pronounced decrease”. The “clinical symptoms (clinical score) vs PBS” value in data set [1] (50 μmol/100 g body weight i.p. twice per day, day 3.5 to day 6) was “a less rapid increase of symptoms, a decreased maximum score and a more rapid decline of clinical symptoms”.
Take `CCCCCCCCNC(=O)C[n+]1cccc(C(=O)O)c1.[Br-]` [BZ194, 3-Carboxy-1-Octylcarbamoylmethyl-Pyridinium]: the “TCR/CD3 complex mediated Ca2+ signalling” value in data set [2] is recorded as “partially blocked”. In the data set on OVA-specific T cells, the proliferation result is “anti-proliferative effect”. In addition, in data set [1] (setting [5]), the “Max. body weight loss (%)” value was 8 ± 1.6% and 10 ± 4.4% and 9 ± 4.3%; the Max. clinical score was 1.6 ± 0.5 and 1.4 ± 0.8. Also, in data set [1] (intraperitoneal BZ194, EAE by i.v. transfer of 5×10^6 TMBP-GFP cells), the “clinical EAE (clinical score)” value is listed as “suppressed; also recorded: significantly ameliorated”. In the data set on rat MBP-specific T cells, the “cytokine (mRNA) production in vitro” value is “suppressed; also recorded: reduced”. The adverse effect entry in data set [3] (higher amounts of BZ194 i.p.) is given as “occasionally induced peritonitis”. The “tolerability (inspection, weight development, immune cell count)” value in data set [3] (i.p., solubilized in DMSO, 180 mg/kg, 5 days) is “well tolerated”. For the same molecule, the “average velocity of TMBP-GFP cells” value with TMBP-GFP cells was determined as 3.5 μm/min. Moreover, the “cytokine (mRNA) production ex vivo” value in data set [4] is “suppressed; also recorded: significant reduction”.
